Legend:
[1] = Test G: effect on body weight of repeated escalating dosing (toxicity, MTD); type: in vivo; details: IV once a day for 7 days, 20 mg/kg increased by 25% each dose; two female mice per group
Protocol: Mice were treated with escalating doses of either compound 16 or 3-Cl-AHPC to establish the difference in toxicity (MTD) between these compounds as measured by decreased body weight (FIG. 8). Two groups of mice, each consisting of two female ICR-SCIDS mice, were injected IV with either compound 16 or 3-Cl-AHPC once a day for 7 days. The initial IV injection of 20 mg/kg for each compound was increased by 25% for each ensuing dose. Body weights were measured on each of the seven days with the final body weights determined 48 hours post final dose. […] The final weight for this mouse was recorded 2 hours after death.

[2] = system: TF(v-SRC) tumors; experiment: Test F: inhibition of growth of palpable TF(v-SRC) tumors; type: in vivo, SCID mice; details: palpable tumors of 100 mg
Protocol: FIG. 7 illustrates compound 16 inhibited TF(v-SRC) proliferation and growth in SCID mice. NOD SCID mice were randomized into two groups of eight. Each mouse was injected with 1×10^7TF(v-SRC) cells and 24 h later mice were either treated intravenously with compound 16 (20 mg/kg) or vehicle on a Monday, Wednesday and Friday schedule for five weeks. Mice were monitored for toxicity and survival. A) Survival of TF(vSRC) inoculated mice treated with compound 16, and B) absence of weight loss in compound 16 treated SCID mice. C) compound 16 inhibited palpable TF(v-SRC) growth in SCID mice. TF(v-SRC) cells were grown subcutaneously in a maintenance SCID mouse. The tumor was harvested and approximately 20 mg of tumor was subcutaneously injected utilizing a trochar into each flank of a SCID mouse. The tumors were then allowed to reach a size of 100 mg. The mice were randomized into three groups of 8 mice. […]
Non-obese diabetic-severe combined immunodeficiency (NOD-SCID) and ICR-SCID mice were obtained from Jackson Laboratories (Bar Harbor, Me.) and Taconic Farms (Germantown, N.Y.), respectively. […] Animals with equal tumor weights determined as described previously (Zhang Y. et al., Blood. 2002; 100:2917-2925) were assigned to three experimental arms: 1) control (vehicle treated), 2) subcutaneously treated with compound 16, and 3) intravenously treated with compound 16. […]

[3] = system: TF(v-SRC) cells; experiment: Test E: inhibition of TF(v-SRC) cell growth in SCID mice (systemic model); type: in vivo; details: 20 mg/kg intravenously every other day, 15 doses
Protocol: FIG. 7 illustrates compound 16 inhibited TF(v-SRC) proliferation and growth in SCID mice. NOD SCID mice were randomized into two groups of eight. Each mouse was injected with 1×10^7TF(v-SRC) cells and 24 h later mice were either treated intravenously with compound 16 (20 mg/kg) or vehicle on a Monday, Wednesday and Friday schedule for five weeks. Mice were monitored for toxicity and survival. A) Survival of TF(vSRC) inoculated mice treated with compound 16, and B) absence of weight loss in compound 16 treated SCID mice. C) compound 16 inhibited palpable TF(v-SRC) growth in SCID mice. TF(v-SRC) cells were grown subcutaneously in a maintenance SCID mouse. The tumor was harvested and approximately 20 mg of tumor was subcutaneously injected utilizing a trochar into each flank of a SCID mouse. The tumors were then allowed to reach a size of 100 mg. The mice were randomized into three groups of 8 mice. Groups were treated either intravenously or subcutaneously at a distant site from the tumor with 20 mg/kg of compound 16 on a Monday, Wednesday and Friday schedule for 12 injections (4 weeks). Control mice were treated intravenously with vehicle.
Non-obese diabetic-severe combined immunodeficiency (NOD-SCID) and ICR-SCID mice were obtained from Jackson Laboratories (Bar Harbor, Me.) and Taconic Farms (Germantown, N.Y.), respectively. A) FFMA-AML and TF(v-SRC) systemic models: NOD-SCID and ICR-SCID mice (4 to 5 weeks old) were injected with either FFMA-AML or TF(v-SRC) cells intravenously. Treatment with either vehicle, 3-Cl-AHPC or compound 16 (the compound of Example 1) was instituted the following day. Once symptoms such as diarrhea, dehydration, weight loss, ascites, paralysis or general weakness became evident, mice were euthanized. B) TF(v-SRC) subcutaneous mouse model. ICR-SCID mice were trocared subcutaneously bilaterally with TF(v-SRC) tumor fragments. Animals with equal tumor weights determined as described previously (Zhang Y. et al., Blood. 2002; 100:2917-2925) were assigned to three experimental arms: 1) control (vehicle treated), 2) subcutaneously treated with compound 16, and 3) intravenously treated with compound 16. The percent increase in the host life-span (% ILS) of the FFMA-AML and TF(v-SRC) bearing mice was calculated by subtracting the […] divided by the median day of death of the AML-bearing vehicle treated mice. In order to determine the efficacy of the 3-Cl-AHPC and compound 16, survival distribution of the 3-Cl-AHPC or compound 16-treated (T) or vehicle (C) groups were compared using the log-rank test. Survival was characterized as the duration of the animal's life span 24 h after the initiation of the xenograft until an observed event (euthanasia or death). A p-value of less than 5% (p<0.05) was considered statistically significant.
The ability of compound 16 to inhibit the growth of TF(v-SRC) cells in SCID mice was determined. SCID mice were injected with 10 million TF(v-SRC) cells. The mice were treated intravenously with compound 16 (20 mg/kg) or vehicle every other day for a total of 15 doses. […] TF(v-SRC) growth in the SCID mice was documented by flow cytometry.

[4] = system: poly(ADP-ribose)polymerase (PARP); experiment: Test C: PARP cleavage; type: cell-based; details: FFMA-AML and TF(v-SRC) cells
Text: FIG. 5 illustrates compound 16-mediated inhibition of XIAP, c-IAP1, and phospho-Bad expression in FFMA-AML and TF(v-SRC) cells accompanied by the induction of PARP cleavage. A) XIAP, c-IAP and phospho-Bad protein expression following exposure to compound 16 assessed by Western blot. B)-D) Protein expression levels quantified using laser densitometry. The expression levels of XIAP, c-IAP1 and phospho-Bad were normalized to the respective α-tubulin level and compared to their relative levels in the controls, which were given an arbitrary value of 1.
The proteins c-IAP1, c-IAP2, and XIAP bind caspases resulting in inhibition of caspase activity (Jin H-S. et al., Cancer Res. 2009; 69:[…]). […] The Bcl-2 family member Bad enhances apoptosis and is inactivated through phosphorylation to phosphorylated Bad (Eisenmann K. M. et al., Cancer Res. 2003; 63:8330-8337). To assess modulation of anti-apoptotic protein expression during the induction of apoptosis in the AML cells by compound 16, the expression of XIAP, c-IAP1 and phospho-Bad as well as cleavage of the DNA-damage repair poly(ADP-ribose)polymerase (PARP) was assessed following exposure of the AML cells to compound 16.

Compound	mortality [1]	reduction in TF(v-SRC) growth ([2]; 20 mg/kg intravenously every other day) [%]	reduction in TF(v-SRC) growth ([2]; 20 mg/kg subcutaneously at a remote site every other day) [%]	clinical signs of toxicity [3]	length of survival [3]	malignant cells by flow cytometry (lymph node/tumor specimens) [3]	treated mice with no evidence of leukemia [3] [%]	weight loss compared to vehicle-treated mice [3]	cleavage of PARP [4]
O=C(O)C=Cc1ccc(-c2ccc(O)c(C34CC5CC(CC(C5)C3)C4)c2)c(Cl)c1 [Compound 3-Cl-AHPC, 4-[3-(1-adamantyl)-4-hydroxyphenyl]-3-chlorocinnamic acid, reference compound]	One of the mice in the group treated with 3-Cl-AHPC died 48 hours after the final injection								
O=C(O)/C=C/c1cnc(-c2ccc(O)c(C34CC5CC(CC(C5)C3)C4)c2)nc1 [Compound 16, (E)-3-[2-(3-(1-Adamantyl)-4-hydroxyphenyl)-5-pyrimidinyl]-2-propenoic acid]		55	55	did not display any evidence of diarrhea, dehydration, scruffy coat, or decreased physical activity	marked increase in the length of survival	No malignant cells were identified	87	did not display any evidence of weight loss	cleavage of PARP was noted
